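1) Cells in 96-well plates. 2) Compound, 48 h, 5 concentrations. 3) Linear interpolation between surrounding doses. 4) Unreached endpoint = highest concentration. GI50 is the concentration that inhibits growth by half. TGI denotes the concentration required for complete inhibition of growth.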
Assays:
Assay in all cases: NCI anticancer screen, dose series, 48 h
786-0 renal = system: 786-0 renal
A498 renal = system: A498 renal
A549 NSCLC = system: A549 NSCLC
ACHN renal = system: ACHN renal
CCRF-CEM leukemia = system: CCRF-CEM leukemia
COLO 205 colon = system: COLO 205 colon
DLD-1 colon = system: DLD-1 colon
DMS 114 small cell lung = system: DMS 114 small cell lung
EKVX NSCLC = system: EKVX NSCLC
HCC-2998 colon = system: HCC-2998 colon
HCT-116 colon = system: HCT-116 colon
HL-60(TB) leukemia = system: HL-60(TB) leukemia
HOP-18 NSCLC = system: HOP-18 NSCLC
HOP-62 NSCLC = system: HOP-62 NSCLC
HOP-92 NSCLC = system: HOP-92 NSCLC
HT29 colon = system: HT29 colon
IGROV1 ovarian = system: IGROV1 ovarian
KM12 colon = system: KM12 colon
KM20L2 colon = system: KM20L2 colon
LOX IMVI melanoma = system: LOX IMVI melanoma
LXFL 529 NSCLC = system: LXFL 529 NSCLC
M14 melanoma = system: M14 melanoma
M19-MEL melanoma = system: M19-MEL melanoma
MALME-3M melanoma = system: MALME-3M melanoma
MOLT-4 leukemia = system: MOLT-4 leukemia
NCI-H226 lung = system: NCI-H226 lung
NCI-H23 lung = system: NCI-H23 lung
NCI-H460 lung = system: NCI-H460 lung
OVCAR-3 ovarian = system: OVCAR-3 ovarian
OVCAR-4 ovarian = system: OVCAR-4 ovarian
OVCAR-5 ovarian = system: OVCAR-5 ovarian
OVCAR-8 ovarian = system: OVCAR-8 ovarian
RPMI-8226 leukemia = system: RPMI-8226 leukemia
RXF 393 renal = system: RXF 393 renal
RXF-631 renal = system: RXF-631 renal
SF-268 CNS = system: SF-268 CNS
SF-295 CNS = system: SF-295 CNS
SK-MEL-2 melanoma = system: SK-MEL-2 melanoma
SK-MEL-28 melanoma = system: SK-MEL-28 melanoma
SK-MEL-5 melanoma = system: SK-MEL-5 melanoma
SN12C renal = system: SN12C renal
SNB-19 CNS = system: SNB-19 CNS
SNB-75 CNS = system: SNB-75 CNS
SNB-78 CNS = system: SNB-78 CNS
SW-620 colon = system: SW-620 colon
TK-10 renal = system: TK-10 renal
U251 CNS = system: U251 CNS
UACC-257 melanoma = system: UACC-257 melanoma
UACC-62 melanoma = system: UACC-62 melanoma
UO-31 renal = system: UO-31 renal
XF 498 CNS = system: XF 498 CNS
CAKI-1 renal = system: CAKI-1 renal
HCT-15 colon = system: HCT-15 colon
K-562 leukemia = system: K-562 leukemia
NCI-H522 lung = system: NCI-H522 lung
SF-539 CNS = system: SF-539 CNS
SK-OV-3 ovarian = system: SK-OV-3 ovarian
SR leukemia = system: SR leukemia

`NC(=O)/C(=N\NC(=O)c1cc2ccccc2cc1O)C1C(=O)N(c2ccccc2)N=C1N` (centres undefined) was tested, and the TGI (786-0 renal) was > 100 µM, the TGI (A498 renal) was 37.5 µM and the TGI (A549 NSCLC) was > 100 µM. The TGI (ACHN renal) was > 100 µM, the TGI (CCRF-CEM leukemia) was 87.6 µM and the TGI (COLO 205 colon) was > 100 µM. For the same compound, the TGI (DLD-1 colon) was > 100 µM, the TGI (DMS 114 small cell lung) was 53.2 µM and the TGI (EKVX NSCLC) was > 100 µM. The TGI (HCC-2998 colon) was > 100 µM, the TGI (HCT-116 colon) was > 100 µM and the TGI (HL-60(TB) leukemia) was 47.2 µM. The TGI (HOP-18 NSCLC) was > 100 µM, the TGI (HOP-62 NSCLC) was > 100 µM and the TGI (HOP-92 NSCLC) was 94.6 µM. The TGI (HT29 colon) was > 100 µM, the TGI (IGROV1 ovarian) was > 100 µM and the TGI (KM12 colon) was > 100 µM. The TGI (KM20L2 colon) was > 100 µM, the TGI (LOX IMVI melanoma) was > 100 µM and the TGI (LXFL 529 NSCLC) was > 100 µM. The TGI (M14 melanoma) was > 100 µM, the TGI (M19-MEL melanoma) was > 100 µM and the TGI (MALME-3M melanoma) was > 100 µM. For the same compound, the TGI (MOLT-4 leukemia) was 94.5 µM, the TGI (NCI-H226 lung) was > 100 µM and the TGI (NCI-H23 lung) was 56.5 µM. The TGI (NCI-H460 lung) was > 100 µM, the TGI (OVCAR-3 ovarian) was > 100 µM and the TGI (OVCAR-4 ovarian) was > 100 µM. The TGI (OVCAR-5 ovarian) was 54 µM, the TGI (OVCAR-8 ovarian) was > 100 µM and the TGI (RPMI-8226 leukemia) was > 100 µM. The TGI (RXF 393 renal) was > 100 µM, the TGI (RXF-631 renal) was > 100 µM and the TGI (SF-268 CNS) was > 100 µM. For the same compound, the TGI (SF-295 CNS) was > 100 µM, the TGI (SK-MEL-2 melanoma) was 83 µM and the TGI (SK-MEL-28 melanoma) was > 100 µM. The TGI (SK-MEL-5 melanoma) was 37.2 µM, the TGI (SN12C renal) was > 100 µM and the TGI (SNB-19 CNS) was > 100 µM. For the same compound, the TGI (SNB-75 CNS) was > 100 µM, the TGI (SNB-78 CNS) was > 100 µM and the TGI (SW-620 colon) was > 100 µM. The TGI (TK-10 renal) was > 100 µM, the TGI (U251 CNS) was > 100 µM and the TGI (UACC-257 melanoma) was 65 µM. The TGI (UACC-62 melanoma) was 35.9 µM, the TGI (UO-31 renal) was > 100 µM and the TGI (XF 498 CNS) was > 100 µM.

For `CC[O-].CC[O-].CN(C)c1ccc([O-])cc1.CN(C)c1ccc([O-])cc1.[Ti+4]`, the GI50 (786-0 renal) was 32 µM, the TGI (786-0 renal) was > 100 µM and the GI50 (A549 NSCLC) was 54.4 µM. The TGI (A549 NSCLC) was > 100 µM, the GI50 (ACHN renal) was 40.9 µM and the TGI (ACHN renal) was > 100 µM. For the same compound, the GI50 (CAKI-1 renal) was > 100 µM, the TGI (CAKI-1 renal) was > 100 µM and the GI50 (CCRF-CEM leukemia) was 36.4 µM. The TGI (CCRF-CEM leukemia) was > 100 µM, the GI50 (COLO 205 colon) was 58.4 µM and the TGI (COLO 205 colon) was > 100 µM. For the same compound, the GI50 (DLD-1 colon) was 61.4 µM, the TGI (DLD-1 colon) was > 100 µM and the GI50 (DMS 114 small cell lung) was 35 µM. The TGI (DMS 114 small cell lung) was > 100 µM, the GI50 (EKVX NSCLC) was > 100 µM and the TGI (EKVX NSCLC) was > 100 µM. For the same compound, the GI50 (HCC-2998 colon) was 53.6 µM, the TGI (HCC-2998 colon) was > 100 µM and the GI50 (HCT-116 colon) was 52.5 µM. The TGI (HCT-116 colon) was > 100 µM, the GI50 (HCT-15 colon) was 61.4 µM and the TGI (HCT-15 colon) was > 100 µM. For the same compound, the GI50 (HL-60(TB) leukemia) was 46.4 µM, the TGI (HL-60(TB) leukemia) was > 100 µM and the GI50 (HOP-18 NSCLC) was > 100 µM. The TGI (HOP-18 NSCLC) was > 100 µM, the GI50 (HOP-62 NSCLC) was > 100 µM and the TGI (HOP-62 NSCLC) was > 100 µM. The GI50 (HT29 colon) was 21.3 µM, the TGI (HT29 colon) was 49.5 µM and the GI50 (IGROV1 ovarian) was > 100 µM. The TGI (IGROV1 ovarian) was > 100 µM, the GI50 (K-562 leukemia) was 29.1 µM and the TGI (K-562 leukemia) was > 100 µM. For the same compound, the GI50 (KM12 colon) was 29.3 µM, the TGI (KM12 colon) was > 100 µM and the GI50 (KM20L2 colon) was 61.7 µM. For the same compound, the TGI (KM20L2 colon) was > 100 µM, the GI50 (LOX IMVI melanoma) was 38.6 µM and the TGI (LOX IMVI melanoma) was > 100 µM. The GI50 (LXFL 529 NSCLC) was 68.2 µM, the TGI (LXFL 529 NSCLC) was > 100 µM and the GI50 (M14 melanoma) was 98.4 µM. For the same compound, the TGI (M14 melanoma) was > 100 µM, the GI50 (M19-MEL melanoma) was 39.3 µM and the TGI (M19-MEL melanoma) was > 100 µM. The GI50 (MALME-3M melanoma) was 82.9 µM, the TGI (MALME-3M melanoma) was > 100 µM and the GI50 (MOLT-4 leukemia) was 32.4 µM. The TGI (MOLT-4 leukemia) was > 100 µM, the GI50 (NCI-H226 lung) was > 100 µM and the TGI (NCI-H226 lung) was > 100 µM. The GI50 (NCI-H23 lung) was 70.6 µM, the TGI (NCI-H23 lung) was > 100 µM and the GI50 (NCI-H460 lung) was 27.7 µM. For the same compound, the TGI (NCI-H460 lung) was 75 µM, the GI50 (NCI-H522 lung) was 52.3 µM and the TGI (NCI-H522 lung) was > 100 µM. The GI50 (OVCAR-3 ovarian) was 56.1 µM, the TGI (OVCAR-3 ovarian) was > 100 µM and the GI50 (OVCAR-4 ovarian) was > 100 µM. For the same compound, the TGI (OVCAR-4 ovarian) was > 100 µM, the GI50 (OVCAR-5 ovarian) was > 100 µM and the TGI (OVCAR-5 ovarian) was > 100 µM. For the same compound, the GI50 (OVCAR-8 ovarian) was 36.8 µM, the TGI (OVCAR-8 ovarian) was > 100 µM and the GI50 (RPMI-8226 leukemia) was 95.7 µM. The TGI (RPMI-8226 leukemia) was > 100 µM, the GI50 (RXF-631 renal) was 66.1 µM and the TGI (RXF-631 renal) was > 100 µM. For the same compound, the GI50 (SF-268 CNS) was 36.4 µM, the TGI (SF-268 CNS) was > 100 µM and the GI50 (SF-295 CNS) was 48.7 µM. For the same compound, the TGI (SF-295 CNS) was > 100 µM, the GI50 (SF-539 CNS) was 30.8 µM and the TGI (SF-539 CNS) was > 100 µM. For the same compound, the GI50 (SK-MEL-2 melanoma) was > 100 µM, the TGI (SK-MEL-2 melanoma) was > 100 µM and the GI50 (SK-MEL-28 melanoma) was > 100 µM. For the same compound, the TGI (SK-MEL-28 melanoma) was > 100 µM, the GI50 (SK-MEL-5 melanoma) was 99.8 µM and the TGI (SK-MEL-5 melanoma) was > 100 µM. The GI50 (SK-OV-3 ovarian) was > 100 µM, the TGI (SK-OV-3 ovarian) was > 100 µM and the GI50 (SNB-19 CNS) was > 100 µM. For the same compound, the TGI (SNB-19 CNS) was > 100 µM, the GI50 (SNB-75 CNS) was > 100 µM and the TGI (SNB-75 CNS) was > 100 µM. The GI50 (SNB-78 CNS) was > 100 µM, the TGI (SNB-78 CNS) was > 100 µM and the GI50 (SR leukemia) was 72.2 µM. For the same compound, the TGI (SR leukemia) was > 100 µM, the GI50 (SW-620 colon) was 70.5 µM and the TGI (SW-620 colon) was > 100 µM. The GI50 (TK-10 renal) was > 100 µM, the TGI (TK-10 renal) was > 100 µM and the GI50 (U251 CNS) was 39 µM. For the same compound, the TGI (U251 CNS) was > 100 µM, the GI50 (UACC-257 melanoma) was 28.7 µM and the TGI (UACC-257 melanoma) was > 100 µM. The GI50 (UACC-62 melanoma) was > 100 µM, the TGI (UACC-62 melanoma) was > 100 µM and the GI50 (UO-31 renal) was > 100 µM. The TGI (UO-31 renal) was > 100 µM, the GI50 (XF 498 CNS) was > 100 µM and the TGI (XF 498 CNS) was > 100 µM.

From PubChem BioAssay (NCI)
